Results reported in BindingDB's records for doi:10.1074/jbc.271.42.26315 (Bayer, 1996).
Where “and” joins values, the source holds several entries; their conditions need not be identical. Equal values may be shown once. Peptide text beside a SMILES is read from it.

How the values were obtained:
[1] = target: T1, Neuropeptide Y receptor type 5 (Homo sapiens, UniProt Q15761)
T1 sequence (Q15761 whole entry): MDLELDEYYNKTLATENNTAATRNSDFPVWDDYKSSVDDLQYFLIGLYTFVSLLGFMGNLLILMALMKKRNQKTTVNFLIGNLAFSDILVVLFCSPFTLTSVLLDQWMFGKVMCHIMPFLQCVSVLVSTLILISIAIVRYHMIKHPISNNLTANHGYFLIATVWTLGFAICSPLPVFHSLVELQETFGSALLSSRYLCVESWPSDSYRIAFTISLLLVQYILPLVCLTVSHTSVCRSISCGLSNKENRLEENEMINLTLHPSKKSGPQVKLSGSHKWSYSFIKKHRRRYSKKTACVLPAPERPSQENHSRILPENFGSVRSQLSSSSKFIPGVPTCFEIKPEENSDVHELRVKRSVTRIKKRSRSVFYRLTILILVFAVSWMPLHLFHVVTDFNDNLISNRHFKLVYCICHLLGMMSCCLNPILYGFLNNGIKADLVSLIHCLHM

[2] = target: T2, Neuropeptide Y receptor type 5 (Rattus norvegicus, UniProt Q63634)
T2 sequence (Q63634 whole entry): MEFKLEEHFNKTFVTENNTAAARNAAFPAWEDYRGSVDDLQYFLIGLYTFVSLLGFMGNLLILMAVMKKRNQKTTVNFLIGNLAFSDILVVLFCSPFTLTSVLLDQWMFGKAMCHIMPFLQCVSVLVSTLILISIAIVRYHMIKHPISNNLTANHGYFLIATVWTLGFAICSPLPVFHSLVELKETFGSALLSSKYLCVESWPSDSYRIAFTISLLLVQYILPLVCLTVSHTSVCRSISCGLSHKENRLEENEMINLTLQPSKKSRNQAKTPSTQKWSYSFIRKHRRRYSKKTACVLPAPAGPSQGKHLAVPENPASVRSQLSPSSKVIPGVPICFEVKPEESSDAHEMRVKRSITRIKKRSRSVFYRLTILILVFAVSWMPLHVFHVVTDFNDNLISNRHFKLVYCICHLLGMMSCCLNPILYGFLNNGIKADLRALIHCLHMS

| Ki [1] [nM] | Ki [2] | SMILES |
| --- | --- | --- |
| 1000 | 1000 nM | CC[C@H](C)[C@H](NC(=O)[C@H](Cc1ccc(O)cc1)NC(=O)[C@H](Cc1cnc[nH]1)NC(=O)[C@H](CCCN=C(N)N)NC(=O)[C@H](CC(C)C)NC(=O)[C@H](C)NC(=O)[C@@H](N)CO)C(=O)N[C@@H](CC(N)=O)C(=O)N[C@@H](CC(C)C)C(=O)N[C@H](C(=O)N[C@H](C(=O)N[C@@H](CCCN=C(N)N)C(=O)N[C@@H](CCC(N)=O)C(=O)N[C@@H](CCCN=C(N)N)C(=O)N[C@@H](Cc1ccc(O)cc1)C(N)=O)[C@@H](C)O)[C@@H](C)CC [NPY22-36, rat, human] |
| 436 | 62 nM and 296 nM | CC[C@H](C)[C@H](NC(=O)[C@H](Cc1ccc(O)cc1)NC(=O)[C@H](CCCNC(=N)N)NC(=O)[C@H](CCCNC(=N)N)NC(=O)[C@H](CC(C)C)NC(=O)[C@H](CCC(N)=O)NC(=O)[C@@H](NC(=O)[C@H](CCC(=O)O)NC(=O)[C@H](Cc1ccc(O)cc1)NC(=O)[C@H](CCC(N)=O)NC(=O)[C@H](C)NC(=O)[C@H](CCCNC(=N)N)NC(=O)[C@H](CCC(N)=O)NC(=O)[C@H](CCC(=O)O)NC(=O)[C@H](Cc1c[nH]cn1)NC(=O)[C@@H](NC(=O)[C@H](C)NC(=O)[C@H](Cc1ccc(O)cc1)NC(=O)[C@H](CC(=O)O)NC(=O)CNC(=O)[C@@H]1CCCN1C(=O)[C@H](Cc1ccc(O)cc1)NC(=O)[C@H](CCSC)NC(=O)[C@@H]1CCCN1C(=O)[C@H](CCC(=O)O)NC(=O)[C@H](CC(C)C)NC(=O)[C@@H]1CCCN1C(=O)[C@H](C)N)[C@@H](C)O)[C@@H](C)O)C(=O)N[C@@H](CC(N)=O)C(=O)N[C@H](C(=O)N[C@@H](CC(C)C)C(=O)N[C@H](C(=O)N[C@@H](CCCNC(=N)N)C(=O)N1CCC[C@H]1C(=O)N[C@@H](CCCNC(=N)N)C(=O)N[C@@H](Cc1ccc(O)cc1)C(N)=O)[C@@H](C)O)[C@@H](C)O [NSC_41735] |
|  | 1000 nM | N=C(N)NCCCC(NC(=O)C(c1ccccc1)c1ccccc1)C(=O)NCc1ccc(O)cc1 (stereo unspecified) [NSC_5311023] |

| SMILES | Ki [1] [nM] | Ki [2] |
| --- | --- | --- |
| CC(C)C[C@H](NC(=O)[C@H](CO)NC(=O)[C@H](C)NC(=O)[C@H](Cc1ccc(O)cc1)NC(=O)[C@H](Cc1ccc(O)cc1)NC(=O)[C@H](CCCNC(=N)N)NC(=O)[C@H](CO)NC(=O)[C@H](CC(C)C)NC(=O)[C@H](CCC(=O)O)NC(=O)[C@H](CCC(=O)O)NC(=O)[C@@H]1CCCN1C(=O)[C@@H](N)CO)C(=O)N[C@@H](CCCNC(=N)N)C(=O)N[C@@H](Cc1c[nH]cn1)C(=O)N[C@@H](Cc1ccc(O)cc1)C(=O)N[C@@H](CC(C)C)C(=O)N[C@@H](CC(N)=O)C(=O)N[C@@H](CC(C)C)C(=O)N[C@H](C(=O)N[C@H](C(=O)N[C@@H](CCCNC(=N)N)C(=O)N[C@@H](CCC(N)=O)C(=O)N[C@@H](CCCNC(=N)N)C(=O)N[C@@H](Cc1ccc(O)cc1)C(N)=O)[C@@H](C)O)C(C)C [PYY 3-36, rat] (H-SPEELSRYYASLRHYLNLVTRQRY-NH2) | 10 |  |
